The conditions of data set [1]: in vivo; cited from earlier work.
The conditions of data set [2]: cited from earlier work.
For data set [3] the following is noted: exposure to air and light; cited from earlier work.
In data set [4] the target is T1, GPR17 (Homo sapiens, UniProt Q13304). The note with it: activating ligands for GPR17; cited from earlier work.
Target sequence in this assay (Q13304 whole entry, species assumed): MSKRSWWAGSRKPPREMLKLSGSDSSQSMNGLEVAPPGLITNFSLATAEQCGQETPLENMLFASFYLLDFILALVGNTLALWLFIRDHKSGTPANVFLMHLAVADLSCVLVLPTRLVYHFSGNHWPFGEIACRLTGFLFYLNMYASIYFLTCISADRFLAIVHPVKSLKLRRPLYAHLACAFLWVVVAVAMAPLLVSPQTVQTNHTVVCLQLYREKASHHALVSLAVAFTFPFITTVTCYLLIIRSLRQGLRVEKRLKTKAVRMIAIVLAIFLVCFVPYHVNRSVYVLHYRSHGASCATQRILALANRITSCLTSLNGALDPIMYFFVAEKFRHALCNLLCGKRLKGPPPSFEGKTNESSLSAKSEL
The target of data set [5] is T1, GPR17. The data set is described as follows: cAMP accumulation functional assay (HTRF, Schild analysis). The settings on record: CHO hGPR17 cells, Schild analysis vs MDL29,951, 5 μM forskolin, read-out: cAMP assay pA2 (converted). Also on record: host or cells: Flp-In T-REx CHO. The class given is cell-based. The method, boiled down: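 Antagonist affinity (pA2) came from Schild plots of dose ratios, based on MDL29,951 concentration-response curves fitted by 4-parameter logistic. The read-out was HTRF cAMP in 5,000 doxycycline-induced CHO hGPR17 cells per well, with 30 min compound preincubation and 60 min stimulation, at room temperature in pH 7.4 buffer.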
Background: cAMP levels reflect the balance of adenylyl cyclase and phosphodiesterase activity.
Target sequence in this assay (Q13304 whole entry): as the sequence (Q13304 whole entry, species assumed) above

Data set [6] in a line: Determination of plasma and brain exposure (brain/plasma ratio, brain Kp). The class given is in vivo. The settings on record: male Sprague Dawley rats, 3 mg/kg intraperitoneal, approximately 45 minutes after administration, FIG. 3. On the procedure: Male Sprague Dawley rats (n=2 per time point) were used to determine the brain penetration of the compounds at 15, 45 and 120 min after 3 mg/kg of intraperitoneal administration.
At each time point, following anesthesia (inhalation of isoflurane) and blood collection (1 mL cardiac puncture into tubes containing K2EDTA) rats were exsanguinated and the brain perfused via the left ventricle (50 mL of heparinized NaCl 0.9% (0.15 UI/mL) flow 50 mL/min).
Brain was collected and weighed. Plasma was obtained from blood samples by centrifugation (3000 g for 15 min at 4° C.). Brain and plasma samples were frozen until time of analysis.
At the time of analysis, brain samples were homogenized in plasma (1:4 v:v) and together with plasma samples, following protein precipitation, were analyzed by HPLC/MS-MS analysis.

Data set [7] addresses T1, GPR17. Kind of data set: Calcium mobilization functional assay (GPR17 Ca2+ assay). It counts as cell-based. Also noted: host or cells: Flp-In T-REx CHO. The settings on record: CHO hGPR17 cells, inhibition of 50 nM MDL29,951, Calcium 5 dye, FLIPR; read-out: Ca2+ assay pIC50 (converted). An outline of the steps:
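pIC50 values were fitted with a 4-parameter logistic curve. They reflect test-compound inhibition of cytosolic Ca2+ release evoked by 50 nM MDL29,951, tracked as Calcium 5 fluorescence at room temperature. Cells were CHO Flp-In T-REx stably carrying human GPR17, induced with doxycycline 1 μg/mL for 16-20 h.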
Target sequence in this assay (Q13304 whole entry): as the sequence (Q13304 whole entry, species assumed) above

Data set [8] deals with primary oligodendrocyte progenitor cells (OPCs). Kind of data set: MBP fiber plates oligodendrocyte maturation/myelination assay. It counts as cell-based, rat. The note with it: OPCs on aligned fiber plates, 1 μM test compound, 6 days, FIG. 2. On the procedure:
Primary oligodendrocyte progenitor cells (OPCs) were isolated from the forebrains of Wistar rat pups at postnatal day 0 to 2. Cerebra were mechanically dissociated with a syringe and two different hollow needles (first 1.2×40 and then 0.60×30). Clump-free cell suspension was filtered through a 70-μm cell strainer and plated into poly-D-lysine-coated 75-cm^2 culture flasks in DMEM supplemented with 10% (v/v) heat-inactivated fetal calf serum, penicillin (100 units/mL), and streptomycin (0.1 mg/mL) with medium exchanged every second day. After 8 to 11 days at 37° C. in a humidified atmosphere of 5% CO2, mixed cultures were shaken at 240 rpm for 14-24 h to detach OPCs from astrocytes and microglia. To further enrich for OPCs, the suspension was plated onto uncoated Petri dishes for 45 min. Then, OPCs were seeded into poly-L-ornithine-coated plates and maintained at 37° C. in a humidified atmosphere of 5% CO2 in proliferating Neurobasal medium supplemented with 2% (v/v) B27, 2 mM GlutaMAX, 100 units/mL penicillin, 0.1 mg/mL streptomycin, 10 ng/mL PDGF-AA, and 10 ng/mL basic FGF changing the medium every second day.
The effects of negative modulators of GPR17 on primary oligodendrocytes maturation/myelination can be assessed in vitro by immunoassays using antibodies directed against Myelin Basic Protein (MBP), as marker for mature oligodendrocytes. […]

In data set [9] the test system is cuprizone-induced demyelination. Kind of data set: Acute cuprizone mice model (PLP immunohistochemistry in corpus callosum). The note with it: oral, daily, 6 mg/kg and 20 mg/kg, vs vehicle p<0.01, FIG. 5. It counts as in vivo, C57BI/6 J mice.

Where only a bound is given, the exact number is not on record here.

Take `O=C(Nc1cccc2c(=O)cc(-c3nnn[nH]3)oc12)c1ccc(OCCCCc2ccccc2)cc1` [pranlukast]: the brain penetration entry in data set [1] was “poor brain penetration”. Moreover, the protein binding result in [2] is listed as “high protein binding”.
In the case of `NCc1[nH]cc(CCC(=O)O)c1CC(=O)O` [PBG, porphobilinogen], in data set [3], the chemical stability entry is “rapidly decomposes after exposure to air and light”. Besides, the “amounts needed in the GPR17 assays (reported affinity quite low)” value at GPR17 [4] is recorded as “mM range”.
Turning to `O=S(=O)(Nc1ccc(F)cc1F)c1c[nH]c2cc(Cl)ccc12` [Compound I-1, 6-chloro-N-(2,4-difluorophenyl)-1H-indole-3-sulfonamide], the Kb on GPR17 [5] was above 31.6 nM. Further, in [6], the “brain concentrations versus plasma exposure” value was “displayed brain concentrations paralleling plasma exposure”. Moreover, the IC50 on GPR17 [7] is above 31.6 nM.
Consider `N#Cc1ccc(NS(=O)(=O)c2c[nH]c3cc(Cl)ccc23)c(F)c1` [Compound I-116, 6-chloro-N-(4-cyano-2-fluorophenyl)-1H-indole-3-sulfonamide], for which the Kb at GPR17 [5] was below 3.16 nM. The IC50 on GPR17 [7] was below 3.16 nM. Further, the “myelin sheath length (myelinated fibers by fiber length)” value in data set [8] is “induced longer myelin sheaths”.
For `O=S(=O)(Nc1cc(F)c(Br)cc1F)c1c[nH]c2nc(Cl)ccc12` [Compound I-228, N-(4-bromo-2,5-difluorophenyl)-6-chloro-1H-pyrrolo[2,3-b]pyridine-3-sulfonamide], in data set [9], the “reappearance of myelin-associated proteins (PLP levels in corpus callosum)” value is listed as “accelerates the reappearance of the myelin-associated proteins”.
For `NCC(=O)CCC(=O)O` [Compound 5-ALA, 5 amino levulinic acid], the “amounts needed in the GPR17 assays (reported affinity quite low)” value at GPR17 [4] was “three digit micromolar range”.
As for `CC(C)(O)c1ccccc1CC[C@@H](SCC1(CC(=O)O)CC1)c1cccc(/C=C/c2ccc3ccc(Cl)cc3n2)c1` [montekulast, Montelukast], the brain penetration result in [1] was “poor brain penetration”. Besides, the protein binding result in [2] was “high protein binding”.
Consider `O=S(=O)(Nc1cccc2nsnc12)c1c[nH]c2cc(C(F)(F)F)ccc12` [Compound I-186, N-(2,1,3-benzothiadiazol-4-yl)-6-(trifluoromethyl)-1H-indole-3-sulfonamide], for which the Kb at GPR17 [5] is 3.16 to 31.6 nM. The IC50 on GPR17 [7] was 3.16 to 31.6 nM.
As for `[N-]=[N+]=Nc1ccc(NS(=O)(=O)c2c[nH]c3cc(Cl)ccc23)c(F)c1` [Compound I-241, N-(4-azido-2-fluorophenyl)-6-chloro-1H-indole-3-sulfonamide], the Kb on GPR17 [5] is 3.16 to 31.6 nM. For the same molecule, on GPR17 [7], the IC50 was 3.16 to 31.6 nM.
With `N#CCOc1cc(F)c(NS(=O)(=O)c2c[nH]c3c2ccc2cccnc23)cc1F` [Compound I-360, N-[4-(cyanomethoxy)-2,5-difluorophenyl]-1H-pyrrolo[3,2-h]quinoline-3-sulfonamide], the Kb on GPR17 [5] was below 3.16 nM. For the same molecule, the IC50 on GPR17 [7] was below 3.16 nM.
Regarding `O=S(=O)(Nc1ccc(Cl)cc1F)c1c[nH]c2nc(Cl)ccc12` [Compound I-224, 6-chloro-N-(4-chloro-2-fluorophenyl)-1H-pyrrolo[2,3-b]pyridine-3-sulfonamide], the Kb at GPR17 [5] was 3.16 to 31.6 nM. Besides, the IC50 on GPR17 [7] is 3.16 to 31.6 nM.

(Values after patent US12071404B2, “Aza (indole)-, benzothiophene-, and benzofuran-3-sulfonamides” (UCB Pharma GmbH, priority 2016, dated 2024).)
